Reference: patent EP4159743A1, “METHODS FOR PREPARING PYRIDAZINE COMPOUNDS” (ETH Zurich, priority 2021, dated 2023)

Assay: Kinetics measurements, control sample: decrease in absorption of the tetrazine alone over time
Format: physicochemical
Conditions: absorption at 525 nm monitored over time, trypsin buffer
Experimental: For kinetic measurements, 196 µL trypsin buffer was added with 2 µL of a 10 mM stock solution of compound 1 in DMSO (final concentration 100 µM) and 2 µL of a 10 mM stock solution of 3,6-di-2-pyridyl-1,2,4,5-tetrazine in DMSO (final concentration 100 µM) in a quartz cuvette. The sample was mixed well and absorption at 525 nm was monitored over time, measuring every minute. Measurements were done in triplicates. […] This was subtracted from the kinetic measurements. The obtained absorbance values were converted to concentrations through a standard curve and were plotted as the reciprocal concentration of the tetrazine reagent versus time to yield a second-order rate constant. Data analysis and statistical analysis were done in Microsoft Excel (2016) and Prism 7 (GraphPad).

c1ccc(-c2nnc(-c3ccccn3)nn2)nc1 [3,6-di-2-pyridyl-1,2,4,5-tetrazine]
rate constant (decrease in absorption over time, fitted to a first-order reaction equation): 2.96e-05 s⁻¹
